Data from patent publication US7893252B2, “Selectively depolymerized galactomannan polysaccharide” (priority 2003, dated 2011).

Legend:
[1] = test system: Salmonella typhimurium strains TA97a, TA98, TA100, TA1535 and Escherichia coli strain WP2 uvrA (pKM101); assay: Ames bacterial reverse mutation assays; format: cell-based; settings: in the presence and absence of an exogenous metabolic activation system
Experimental: Mutagenicity studies were conducted and included two Ames bacterial reverse mutation assays in which the galactomannan of the invention was evaluated by itself in the first study and combined with 5-FU in the second study. The test articles in both studies were evaluated in bacterial assays using Salmonella typhimurium strains TA97a, TA98, TA100, TA1535 and Escherichia coli strain WP2 uvrA (pKM101), both in the presence and absence of an exogenous metabolic activation system.

[2] = Biodistribution of 3H-galactomannan in tumor-bearing and non-tumor bearing mice (Example 6); format: in vivo
Experimental: The biodistribution of 3H-galactomannan was studied in tumor-bearing and non-tumor bearing mice. […] 3H-galactomannan elimination from plasma, kidneys, lungs and tumor in the various groups was rapid, an average of approximately 50% of the one-hour radioactivity was detected at six hours except in tumor-bearing mice, where the radioactivity in tumor samples from mice treated with 6 or 60 mg/kg of 3H-galactomannan with or without 5-FU averaged approximately 72% remaining after six hours. Elimination of 3H-galactomannan from the liver was more gradual than in other tissues, and on average, more than 50% of the radioactivity detected at one hour after injection was still present at 24 hours.
Male NCr-nu athymic nude mice (Charles Rivers Laboratories, Raleigh, N.C.) were acclimated and housed as described above. The first set of animals (a total of 18 mice) were non-tumored mice. The second set of 18 mice were tumored as follows. […]
Tritiation of GM from G. triacanthos was performed as follows. […] Total yield of the labeled GM was 3.8 mCi, specific radioactivity was 300 μCi/mg.
All 36 mice, divided into 18 groups, were given a single intravenous injection of cold or tritiated GM (either 6 or 60 mg/kg) or of a combination of GM (60 mg/kg, cold or tritiated) and 5-FU (114 mg/kg) on the same day. Non-labeled GM was formulated in saline, and tritiated GM was added to the solution so that each animal received 10 μCi of radioactivity. […] All dosing solutions (100 μL each) were counted in duplicate. […]
After weighing, livers were dissolved in 10 mL of Soluene 350 (Packard Instruments, Downers Grove, Ill.) and incubated first for 4 hrs at 50° C., and at room temperature, until tissues were solubilized. One millilter of the resulting solution was counted in a scintillation counter as a single sample. Based on tissue weight and the sample volume, the number of μCi of tritiated GM per gram of tissue was calculated.
Kidneys were treated in the same manner, but dissolved in 2 mL of Soluene. […] Plasma samples (50 μL each) were placed direct into Safety Solve and counted as a single sample. […]

[3] = test system: human colon tumor COLO 205; assay: Efficacy study in COLO 205 human colon tumor xenografts, q4d×3 (Example 3); settings: i.v. q4d×3, 5-FU 75 mg/kg/dose, GM 120 mg/kg/dose
Experimental: The both studies were conducted as follows.
5-FU alone was administered i.v. on the same q4d×3 treatment schedule at doses of 75 mg/kg/dose (225 mg/m2/dose). 5-FU was formulated in saline fresh on each day of treatment at a concentration of 3.75 mg/mL, at pH 9.2. […] Both individual compounds and their mixture were administered according to exact body weight with injection volume being 0.2 mL/10 g body weight.
There were a total of four groups of 10 animals each, s.c.-implanted with COLO 205 human colon tumor xenografts.

rats [4] = assay: Repeat dose I.V. rat study with GMP grade galactomannan (Example 8); format: in vivo
Experimental: Studies with repeat dose I.V. in rats with up to 52-day recovery period was performed using filtered GMP grade galactomannan material containing 48 or 96 mg/kg (288 or 576 mg/m2). Five animals of each sex were sacrificed at days 5, 28 and 56.
The galactomannan of the invention has minimal histological effects with only 1/30 rats injected with 48 mg/kg dose of the GMP galactomannan clinical solution having granulomatous inflammation. […] It was concluded that galactomannan clinical solutions, up to a dose of 15 mg/kg (555 mg/m2; 9 mg/mL), is safe for human use and poses no undue risk to health.

rats [5] = assay: Acute toxicology, single IV dose in rats; format: in vivo
Experimental: Acute toxicology studies of the galactomannan of the present invention were performed in mice, rats and dogs and subchronic toxicology studies were performed in rats and dogs. The following is a summary of the findings of these studies:
In rats (n=5/sex/group), single IV doses of 140 mg/kg (840 mg/m2) 5-FU, 72 mg/kg (432 mg/m2) galactomannan or 140/72 mg/kg of the combination produced no deaths in any of the groups.
Toxic changes in body weight, feed consumption, and hematology were less severe in the rats injected with the combination, versus those injected with 5-FU alone.

(((1,4)-linked β-D-mannopyranose)17-((1,6)-linked-β-D-galactopyranose)10)12) [GM]
mutagenic activity ([1]; listed as galactomannan): not mutagenic | mutagenic activity ([1]; listed as galactomannan of the invention): No evidence of mutagenic activity | increase of the amount of bound galactomannan for the 10-times higher dose ([2]; 60 mg/kg versus 6 mg/kg): 10 fold | saturation of binding ([2]; 6 to 60 mg/kg (18 to 180 mg/m2)): did not reach saturation | binding to liver, kidney, lung, tumor, and plasma ([2]; single i.v. injection, 6 or 60 mg/kg): freely binds | mean survival time [3]: 19.2 days | median to quadrupling of tumor volume [3]: 15.5 days | median tumor volume after 56 days of the study [3]: 1813 mm3 | tolerability [3]: well tolerated | tumor regression after 56 days of the study [3]: no tumor regression | treatment-related deaths ([3]; 10 mice per group, within two weeks): No deaths | rats having granulomatous inflammation (rats [4]; 48 mg/kg dose of GMP galactomannan clinical solution): 1/30 | rats having granulomatous inflammation (rats [4]; 96 mg/kg dose of GMP galactomannan clinical solution): None of the 30 | deaths (rats [5]; 5-FU 140 mg/kg, galactomannan 72 mg/kg, combination 140/72 mg/kg, n=5/sex/group): no deaths | untoward effects (rats [5]; galactomannan 72 mg/kg (432 mg/m2) alone): no significant untoward effects
